According to PubChem BioAssay AID2060607 (Molecular Pharmacology Branch, DTP, NCI, 2025):
Values belong to the compound of their own block, whether it stands above or below them.

System: 876862-298-R-J1-PDC complex spheroids, viability % test/control
Assay: Anticancer human tumor 876862-298-R-J1-PDC patient-derived endometrial carcinoma cell line growth inhibition [CLK]
Conditions: for IC50: curve of first compound; for viability, T/C: stronger effect = lower value
Procedure, shortened: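 Patient-derived tumor cells grown as complex spheroids with HUVEC endothelial cells and mesenchymal stem cells, treated with drug combinations. Concentrations descend in half-log steps from near clinical Cmax, or from 10 microM if Cmax unknown.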

[1] = second compound 0.0316 µM, first compound 0.0316 µM
[2] = second compound 0.0316 µM, first compound 0.1 µM
[3] = second compound 0.0316 µM, first compound 0.316 µM
[4] = second compound 0.0316 µM, first compound 1 µM
[5] = second compound 0.0316 µM, first compound 3.16 µM
[6] = second compound 0.0316 µM, first compound 10 µM
[7] = second compound 0.1 µM, first compound 0.0316 µM
[8] = second compound 0.1 µM, first compound 0.1 µM
[9] = second compound 0.1 µM, first compound 0.316 µM
[10] = second compound 0.1 µM, first compound 1 µM
[11] = second compound 0.1 µM, first compound 3.16 µM
[12] = second compound 0.1 µM, first compound 10 µM
[13] = second compound 0.316 µM, first compound 0.0316 µM
[14] = second compound 0.316 µM, first compound 0.1 µM
[15] = second compound 0.316 µM, first compound 0.316 µM
[16] = second compound 0.316 µM, first compound 1 µM
[17] = second compound 0.316 µM, first compound 3.16 µM
[18] = second compound 0.316 µM, first compound 10 µM
[19] = second compound 1 µM, first compound 0.0316 µM
[20] = second compound 1 µM, first compound 0.1 µM
[21] = second compound 1 µM, first compound 0.316 µM
[22] = second compound 1 µM, first compound 1 µM
[23] = second compound 1 µM, first compound 3.16 µM
[24] = second compound 1 µM, first compound 10 µM
[25] = second compound 3.16 µM, first compound 0.0316 µM
[26] = second compound 3.16 µM, first compound 0.1 µM
[27] = second compound 3.16 µM, first compound 0.316 µM
[28] = second compound 3.16 µM, first compound 1 µM
[29] = second compound 3.16 µM, first compound 3.16 µM
[30] = second compound 3.16 µM, first compound 10 µM
[31] = second compound 10 µM, first compound 0.0316 µM
[32] = second compound 10 µM, first compound 0.1 µM
[33] = second compound 10 µM, first compound 0.316 µM
[34] = second compound 10 µM, first compound 1 µM
[35] = second compound 10 µM, first compound 3.16 µM
[36] = second compound 10 µM, first compound 10 µM
[37] = second compound 0.0316 µM, first compound 0.00316 µM
[38] = second compound 0.0316 µM, first compound 0.01 µM
[39] = second compound 0.1 µM, first compound 0.00316 µM
[40] = second compound 0.1 µM, first compound 0.01 µM
[41] = second compound 0.316 µM, first compound 0.00316 µM
[42] = second compound 0.316 µM, first compound 0.01 µM
[43] = second compound 1 µM, first compound 0.00316 µM
[44] = second compound 1 µM, first compound 0.01 µM
[45] = second compound 3.16 µM, first compound 0.00316 µM
[46] = second compound 3.16 µM, first compound 0.01 µM
[47] = second compound 10 µM, first compound 0.00316 µM
[48] = second compound 10 µM, first compound 0.01 µM
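Also: spheroids exposed to drugs for 7 days before readout.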
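For viability, T/C in this document: 100% = DMSO vehicle control wells.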

IC50 (second compound 0.0316 µM): > 10 µM | IC50 (second compound 0.1 µM): < 0.0316 µM | IC50 (second compound 0.316 µM): < 0.0316 µM | IC50 (second compound 1 µM): < 0.0316 µM | IC50 (second compound 3.16 µM): < 0.0316 µM | IC50 (second compound 10 µM): < 0.0316 µM
Structure (SMILES): CC(CO)NC(=O)c1cc(-c2ccc(Cl)cc2)nn(-c2cnn(C)c2)c1=O (stereo not drawn) + CNC(=O)c1ccc(Nc2nc(OC3CCCC3)c3c(-c4ccc5nc(C)oc5c4)c[nH]c3n2)c(OC)c1
viability, T/C [1]: 68.7% | viability, T/C [2]: 81% | viability, T/C [3]: 66.9% | viability, T/C [4]: 67.7% | viability, T/C [5]: 62.9% | viability, T/C [6]: 55.7% | viability, T/C [7]: 41% | viability, T/C [8]: 53% | viability, T/C [9]: 44.9% | viability, T/C [10]: 48.5% | viability, T/C [11]: 46.1% | viability, T/C [12]: 42.7% | viability, T/C [13]: 38.7% | viability, T/C [14]: 43.8% | viability, T/C [15]: 39.7% | viability, T/C [16]: 37.9% | viability, T/C [17]: 42.7% | viability, T/C [18]: 42.1% | viability, T/C [19]: 33.8% | viability, T/C [20]: 32.6% | viability, T/C [21]: 38.9% | viability, T/C [22]: 33.3% | viability, T/C [23]: 30% | viability, T/C [24]: 31.3% | viability, T/C [25]: 24% | viability, T/C [26]: 25.1% | viability, T/C [27]: 21.7% | viability, T/C [28]: 25.5% | viability, T/C [29]: 27.2% | viability, T/C [30]: 22.4% | viability, T/C [31]: 23.9% | viability, T/C [32]: 21.2% | viability, T/C [33]: 20.5% | viability, T/C [34]: 23.8% | viability, T/C [35]: 23.1% | viability, T/C [36]: 20.9%

IC50 (second compound 0.0316 µM): 0.316 µM | IC50 (second compound 0.1 µM): < 0.0316 µM | IC50 (second compound 0.316 µM): < 0.0316 µM | IC50 (second compound 1 µM): < 0.0316 µM | IC50 (second compound 3.16 µM): < 0.0316 µM | IC50 (second compound 10 µM): < 0.0316 µM
Structure (SMILES): CC(Nc1ccc2c(c1)OCCn1cc(N3C(=O)OCC3C(F)F)nc1-2)C(N)=O (stereo not drawn) + CNC(=O)c1ccc(Nc2nc(OC3CCCC3)c3c(-c4ccc5nc(C)oc5c4)c[nH]c3n2)c(OC)c1
viability, T/C [1]: 56% | viability, T/C [2]: 61.4% | viability, T/C [3]: 46.6% | viability, T/C [4]: 41% | viability, T/C [5]: 31.8% | viability, T/C [6]: 20.8% | viability, T/C [7]: 40.6% | viability, T/C [8]: 38.3% | viability, T/C [9]: 32.5% | viability, T/C [10]: 27% | viability, T/C [11]: 20.9% | viability, T/C [12]: 16% | viability, T/C [13]: 41% | viability, T/C [14]: 33.2% | viability, T/C [15]: 29.7% | viability, T/C [16]: 23.1% | viability, T/C [17]: 20% | viability, T/C [18]: 17.4% | viability, T/C [19]: 31.6% | viability, T/C [20]: 25.4% | viability, T/C [21]: 22.1% | viability, T/C [22]: 20% | viability, T/C [23]: 17.1% | viability, T/C [24]: 14% | viability, T/C [25]: 20.1% | viability, T/C [26]: 16.7% | viability, T/C [27]: 15.1% | viability, T/C [28]: 14.8% | viability, T/C [29]: 14% | viability, T/C [30]: 10.2% | viability, T/C [31]: 16.7% | viability, T/C [32]: 14.8% | viability, T/C [33]: 12.6% | viability, T/C [34]: 13% | viability, T/C [35]: 12% | viability, T/C [36]: 9.25%

IC50 (second compound 0.0316 µM): > 1 µM | IC50 (second compound 0.1 µM): 0.0607 µM | IC50 (second compound 0.316 µM): < 0.00316 µM | IC50 (second compound 1 µM): < 0.00316 µM | IC50 (second compound 3.16 µM): < 0.00316 µM | IC50 (second compound 10 µM): < 0.00316 µM
Structure (SMILES): CCN1CCN(Cc2ccc(Nc3ncc(F)c(-c4cc(F)c5nc(C)n(C(C)C)c5c4)n3)nc2)CC1 + CNC(=O)c1ccc(Nc2nc(OC3CCCC3)c3c(-c4ccc5nc(C)oc5c4)c[nH]c3n2)c(OC)c1
viability, T/C [37]: 76.6% | viability, T/C [38]: 84.1% | viability, T/C [1]: 69.4% | viability, T/C [2]: 62.5% | viability, T/C [3]: 59% | viability, T/C [4]: 49% | viability, T/C [39]: 46% | viability, T/C [40]: 51.9% | viability, T/C [7]: 57.1% | viability, T/C [8]: 47.8% | viability, T/C [9]: 47.8% | viability, T/C [10]: 49.5% | viability, T/C [41]: 47.2% | viability, T/C [42]: 45.2% | viability, T/C [13]: 49.6% | viability, T/C [14]: 46.4% | viability, T/C [15]: 45.1% | viability, T/C [16]: 42.8% | viability, T/C [43]: 34.7% | viability, T/C [44]: 40.4% | viability, T/C [19]: 41.1% | viability, T/C [20]: 38.8% | viability, T/C [21]: 31.8% | viability, T/C [22]: 40.5% | viability, T/C [45]: 28% | viability, T/C [46]: 29.1% | viability, T/C [25]: 27.1% | viability, T/C [26]: 30% | viability, T/C [27]: 30.1% | viability, T/C [28]: 35.2% | viability, T/C [47]: 25.2% | viability, T/C [48]: 25.6% | viability, T/C [31]: 22.7% | viability, T/C [32]: 26.4% | viability, T/C [33]: 30.1% | viability, T/C [34]: 32.2%

IC50 (second compound 0.0316 µM): 0.0228 µM | IC50 (second compound 0.1 µM): < 0.00316 µM | IC50 (second compound 0.316 µM): < 0.00316 µM | IC50 (second compound 1 µM): < 0.00316 µM | IC50 (second compound 3.16 µM): < 0.00316 µM | IC50 (second compound 10 µM): < 0.00316 µM
Structure (SMILES): COc1c(OCCCN2CCOCC2)ccc2c3n(c(=NC(=O)c4cnc(N)nc4)nc12)CCN3 + CNC(=O)c1ccc(Nc2nc(OC3CCCC3)c3c(-c4ccc5nc(C)oc5c4)c[nH]c3n2)c(OC)c1
viability, T/C [37]: 63.1% | viability, T/C [38]: 67.3% | viability, T/C [1]: 43.5% | viability, T/C [2]: 22.6% | viability, T/C [3]: 15.8% | viability, T/C [4]: 18% | viability, T/C [39]: 45.5% | viability, T/C [40]: 35.1% | viability, T/C [7]: 25.3% | viability, T/C [8]: 16.6% | viability, T/C [9]: 16.6% | viability, T/C [10]: 18.4% | viability, T/C [41]: 37.4% | viability, T/C [42]: 32.6% | viability, T/C [13]: 22.6% | viability, T/C [14]: 18.1% | viability, T/C [15]: 13.4% | viability, T/C [16]: 14.9% | viability, T/C [43]: 29.2% | viability, T/C [44]: 22.1% | viability, T/C [19]: 18.4% | viability, T/C [20]: 13.6% | viability, T/C [21]: 12% | viability, T/C [22]: 12.6% | viability, T/C [45]: 22.1% | viability, T/C [46]: 17% | viability, T/C [25]: 12.5% | viability, T/C [26]: 9.46% | viability, T/C [27]: 9.04% | viability, T/C [28]: 7.24% | viability, T/C [47]: 17.3% | viability, T/C [48]: 16.9% | viability, T/C [31]: 13.3% | viability, T/C [32]: 9.74% | viability, T/C [33]: 6.96% | viability, T/C [34]: 6.64%
